The text below walks through data of PubChem BioAssay AID1949 (Southern Research Institute, 2009).

For orientation: IC50 means the concentration that gives 50% inhibition.

Converted amounts (≈) assume the structure as drawn. Results filed as inconclusive are left out. The source made the active and inactive calls. How the calls were made is not given here.

The subject of this test is M. tuberculosis H37Rv growth inhibition. Nature of the test: Mycobacterium tuberculosis H37Rv growth inhibition, cell based, confirmatory dose response (AID 1949).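 Further: bacteria grown 7 days with compound before Alamar blue readout.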
For `Cc1cc2ncn(CCCCOc3ccccc3)c2cc1C`, the IC50 was 4.6 µg/mL (≈ 15.6 µM). The same measure for `COC(=O)Cc1c(C)c2ccc(OCC(=O)Nc3cc(C)cc(C)c3)cc2oc1=O`: 0.2 µg/mL (≈ 0.488 µM); for `COc1cccc(NC(=O)Nc2ccc(C(F)(F)F)cc2)c1`: 5.23 µg/mL (≈ 16.9 µM); for `O=C(CSc1ccc(Br)cc1)Nc1ccccc1`: 7.69 µg/mL (≈ 23.9 µM). Next, `COc1cccc2c1OC(c1ccccc1)C([N+](=O)[O-])=C2` (stereo not drawn): 0.7 µg/mL (≈ 2.47 µM); `CC1CCN(c2ccc(NC(=O)c3ccc([N+](=O)[O-])o3)cc2)CC1`: 0.31 µg/mL (≈ 0.941 µM). As for `CC(Oc1ccc(C(=O)NCCc2ccccc2)cc1)C(=O)OCc1ccccc1` (stereo not drawn), the IC50 is 2.32 µg/mL (≈ 5.75 µM). Next, `Cc1ccc(NC(=O)Nc2ccc([N+](=O)[O-])cc2)cc1F`: 13.2 µg/mL (≈ 45.6 µM). With `Clc1ccc(OCCn2ccnc2)c2ccccc12`, the IC50 was 3.99 µg/mL (≈ 14.6 µM).

Take `CC(C)(C)c1ccc(OCCCNCc2ccccc2)cc1`: the IC50 was 4.84 µg/mL (≈ 16.3 µM).

Consider `O=C(COc1ccc(Cl)cc1Cl)Oc1cccc2cccnc12`, for which the IC50 was 5.88 µg/mL (≈ 16.9 µM). As to `CC12CCC(C(=O)Nc3ccc(OC(F)(F)F)cc3)(CC1=O)C2(C)C` (stereo not drawn), the IC50 was 3.09 µg/mL (≈ 8.7 µM). The same measure for `CCCCc1cc(=O)oc2cc(OCC(=O)OCc3ccccc3)c(Cl)cc12`: less than 0.1 µg/mL; for `CCOc1ccc(OCC(=O)Nc2cc(C)cc(C)c2)cc1`: 1.51 µg/mL (≈ 5.04 µM); for `c1ccc2c(NCCc3c[nH]c4ccccc34)c3ccccc3nc2c1`: 1.51 µg/mL (≈ 4.48 µM). The same measure for `Cc1ccc(NC(=O)CC2COc3ccccc3O2)cc1Cl` (stereo not drawn): 1.56 µg/mL (≈ 4.91 µM); for `O=C(CSc1ccc(F)cc1)Nc1ccc2c(c1)OCCO2`: 7.01 µg/mL (≈ 22 µM). Next, `COc1ccc(-c2[nH]c(-c3ccc([N+](=O)[O-])cc3)nc2-c2ccccc2)cc1`: 2.33 µg/mL (≈ 6.27 µM); `O=C(COc1ccc(-c2ccccc2)cc1)OC1CCCCC1`: 0.65 µg/mL (≈ 2.09 µM).

In the case of `c1ccc2sc(NC3=NCN(Cc4ccc5c(c4)OCO5)CN3)nc2c1`, the IC50 is 1.52 µg/mL (≈ 4.14 µM). Next, `Cc1ccc(-n2cc(-c3ccccc3)c3c(NCc4cccnc4)ncnc32)cc1`: 3.25 µg/mL (≈ 8.3 µM). With `Oc1ccccc1CNCCC12CC3CC(CC(C3)C1)C2`, the IC50 was > 50 µg/mL (inactive). In the case of `CCc1ccc(C(=O)NC(=S)Nc2ccc(C(=O)OC)cc2)cc1`, the IC50 is 3.98 µg/mL (≈ 11.6 µM).

Turning to `Oc1ccc(Cl)cc1CNc1nc2ccccc2[nH]1`, the IC50 was 12.1 µg/mL (≈ 44.3 µM). Next, `O=C(Nc1ccc(C(F)(F)F)cc1)C1COc2ccccc2O1` (stereo not drawn): 37.9 µg/mL (≈ 117 µM); `CC1CCN(c2cc(/C=C(\C#N)c3nn(-c4ccccc4)c(N)c3C#N)c3ccccc3n2)CC1`: > 50 µg/mL (inactive). Consider `N#Cc1c(SCC(=O)OCc2ccccc2)nsc1SCC(=O)OCc1ccccc1`, for which the IC50 was 8.73 µg/mL (≈ 18.6 µM).

Consider `CC1CCc2c(sc3nc4c5ccccc5c(N5CCN(CCO)CC5)nn4c(=O)c23)C1` (stereo not drawn), for which the IC50 was 4.86 µg/mL (≈ 10.8 µM). Next, `Cc1ccc(Cl)cc1N1CCN(CC(O)COc2ccc3ccccc3c2)CC1` (stereo not drawn): 4.13 µg/mL (≈ 10.1 µM); `O=C(CC1(O)C(=O)N(CCc2ccccc2)c2ccc(Cl)cc21)c1ccc(Cl)s1` (stereo not drawn): 5.18 µg/mL (≈ 11.6 µM).

`COc1ccc2c(c1)c(=O)oc1cc(OC(C)C(=O)c3ccccc3)ccc12` (stereo not drawn): the IC50 was 2.84 µg/mL (≈ 7.59 µM). Next, `Nc1ncnc(Sc2ncccn2)c1[N+](=O)[O-]`: > 50 µg/mL (inactive). The same measure for `O=[N+]([O-])c1ccc(N2CCN(CCO)CC2)cc1NCCOc1cccc2ccccc12`: 2.82 µg/mL (≈ 6.46 µM); for `COC(=O)COc1ccc(NC(=O)c2cccc(C)c2)cc1`: 0.58 µg/mL (≈ 1.94 µM).

On to `CCOC(=O)c1c(-c2ccccc2)c2cc(OC)ccc2n1CCCN(C)C`, for which the 50% inhibitory concentration (IC50) was 4.68 µg/mL (≈ 12.3 µM). The same measure for `COc1ccc(CCNC(=S)N2CCN(C/C=C/c3ccccc3)CC2)cc1OC`: 1.73 µg/mL (≈ 4.06 µM). The same measure for `Cc1ccc2nc(NCc3ccccc3)[nH]c2c1`: 1.49 µg/mL (≈ 6.28 µM). The same measure for `CCOC(=O)c1c(NC(=O)CN2CCN(CCO)CC2)sc2c1CCC(C)C2` (stereo not drawn): 7.17 µg/mL (≈ 17.5 µM); for `CN1CCN(c2ccc(NC(=O)c3sc4ccccc4c3Cl)cc2)CC1`: > 50 µg/mL (inactive).

As for `CCOC(=O)COc1ccc2c(=O)c(-c3ccc(OC)cc3)c(C)oc2c1`, the half-maximal inhibitory concentration (IC50) is 1.29 µg/mL (≈ 3.5 µM). Take `Cc1ccc(-c2nn(-c3cc(N4CCN(C)CC4)ccc3[N+](=O)[O-])c(=O)c3ccccc23)cc1`: the half-inhibitory concentration (IC50) is 8.15 µg/mL (≈ 17.9 µM). The same measure for `CCn1c2ccccc2c2cc(CN3CCC(N4CCN(c5ccccc5)CC4)CC3)ccc21`: 1.45 µg/mL (≈ 3.2 µM); for `COc1ccccc1Nc1nc(N)nc(CN2CCC(Cc3ccccc3)CC2)n1`: 37.8 µg/mL (≈ 93.5 µM).

As for `CCOc1ccc(NC(=O)CSc2nc3ccc([N+](=O)[O-])cc3s2)cc1`, the IC50 is 1.99 µg/mL (≈ 5.11 µM).

`Cc1ccc(C(=O)Nc2cc(C#N)c3[nH]c4ccccc4n3c2=O)cc1`: the IC50 was 6.55 µg/mL (≈ 19.1 µM).

With `CCOC(=O)c1cc(CC)sc1NC(=O)c1cc2ccccc2oc1=O`, the IC50 is 0.38 µg/mL (≈ 1.02 µM). The same measure for `COc1ccccc1C(=O)NNC(=S)NC(=O)c1cccs1`: 0.15 µg/mL (≈ 0.447 µM); for `COc1ccccc1-c1c(C)oc2cc(OCc3ccccc3)ccc2c1=O`: 9.15 µg/mL (≈ 24.6 µM). The same measure for `Cc1ccc(NC(=S)c2ccccn2)cc1`: 0.99 µg/mL (≈ 4.34 µM). The same measure for `Cc1ccc2nc(SCc3ccc4ccccc4c3)[nH]c2c1`: 11 µg/mL (≈ 36 µM). As for `CC(C)OC(=O)COc1ccc(-c2ccccc2)cc1`, the IC50 was > 50 µg/mL (inactive). Next, `O=C(N=Nc1c(O)[nH]c2ccccc12)c1ccc(Cl)cc1`: 46.7 µg/mL (≈ 156 µM); `Cn1c2c(c(=O)n(C)c1=O)C(C(F)(F)F)(C(F)(F)F)N=C(c1ccc(Cl)cc1)N2`: 46.1 µg/mL (≈ 105 µM). The same measure for `C#Cc1cccc(NC(=O)COc2ccc(Cl)cc2)c1`: 8.18 µg/mL (≈ 28.6 µM).

Take `CCOC(=O)COc1ccc(S(=O)(=O)Nc2cccc(Cl)c2C)cc1`: the IC50 is 3.03 µg/mL (≈ 7.89 µM). The same measure for `CCn1c(NCc2c(O)ccc3ccccc23)nc2ccccc21`: 2.05 µg/mL (≈ 6.46 µM); for `Cc1cc(=O)oc2cc(OCC(=O)OC3CCCCC3)ccc12`: 1.47 µg/mL (≈ 4.65 µM). Turning to `O=C(CSc1ccc(F)cc1)Nc1ccccc1F`, the IC50 is 5.83 µg/mL (≈ 20.9 µM).

In the case of `COC(=O)COc1ccc(NC(=O)CSc2ccc(Cl)cc2)cc1`, the IC50 is 0.77 µg/mL (≈ 2.1 µM). Turning to `CCCCC(=O)Nc1ccc(C(=O)N2CCN(c3cccc(C(F)(F)F)c3)CC2)cc1`, the IC50 was 9.86 µg/mL (≈ 22.7 µM). The same measure for `Cc1ccc(C(=O)Nc2ccc([N+](=O)[O-])cc2C)cc1I`: less than 0.1 µg/mL. Next, `COc1cc(CNC23CC4CC(CC(C4)C2)C3)ccc1OCc1ccccc1`: > 50 µg/mL (inactive); `COCCNc1nc(-c2ccc(Cl)cc2)nc2ccccc12`: > 50 µg/mL (inactive); `COc1ccc(-c2cc(=O)oc3cc(OCC(=O)OCc4ccccc4)ccc23)cc1`: 16.4 µg/mL (≈ 39.3 µM).

Take `COc1ccc(OCC(=O)NNC(=S)NC(=O)C(C)(C)C)cc1`: the IC50 was 0.13 µg/mL (≈ 0.383 µM). Next, `C=CCc1cc(C)ccc1OCCCn1ccnc1`: 3.52 µg/mL (≈ 13.7 µM). Next, `c1ccc(COc2ccc(OCCCCn3ccnc3)cc2)cc1`: 5.37 µg/mL (≈ 16.7 µM). The same measure for `O=C(Nc1cccc2cccnc12)c1ccc([N+](=O)[O-])o1`: 8.91 µg/mL (≈ 31.5 µM); for `O=C(CCN1CCc2ccccc2CC1)c1ccc2c(c1)OCCO2`: 8.36 µg/mL (≈ 24.8 µM). Turning to `O=C(CC12CC3CC(CC(C3)C1)C2)Nc1cccc(Cl)c1`, the IC50 was 3.34 µg/mL (≈ 11 µM). Turning to `CCOc1ccc(C(=O)NC23CC4CC(CC(C4)C2)C3)cc1[N+](=O)[O-]`, the IC50 was > 50 µg/mL (inactive). The same measure for `CCOc1cc(CNCCO)ccc1OCc1ccc(Cl)cc1Cl`: 6.03 µg/mL (≈ 16.3 µM); for `CCC(=O)Oc1cccc2ccc(/C=C/c3ccccc3F)nc12`: less than 0.1 µg/mL.
